Patent US6479509B1, “Method of promoting smoking cessation” (priority 2000, dated 2002)
“Also recorded” adds a separate entry of the source. Read-outs that look alike come from different tables or passages of the source.

Legend:
[1] = system: nicotine-induced antinociception; assay: Blockade of nicotine-induced antinociception, tail-flick test; format: in vivo, mice; conditions: for AD50, nicotine-induced antinociception in tail-flick test: s.c. administration; for AD50 Tail-Flick: blocking antinociception of nicotine 2.5 mg/kg, systemic administration
Description: Anitinociception. The tail-flick method of D'Amour and Smith (1941) as modified by Dewey et al. (1970) was used. A control response (2-4 s) was determined for each animal before treatment, and a test latency was determined after drug administration. To minimize tissue damage, a maximum latency of 10 s was imposed. Antinociceptive response was calculated as percent maximum possible effect (% MPE), where % MPE=[((test-control)/(10-control))×100], Groups of 8 to 12 animals were used for each dose and for each treatment. Mice were tested 5 min after nicotine administration for the dose-response evaluation. Antagonism studies were carried out by pretreating the mice s.c. with either saline or various drugs at different times before nicotine. The animals were tested 5 min after administration of nicotine.
(§1) Data were analyzed statistically by an analysis of variance followed by the Fisher's P least-significant difference multiple comparison test. The null hypothesis was rejected at the […].

Serotonin transporter = molecular target: T1, Serotonin transporter (Rattus norvegicus, UniProt P31652)
T1 construct: from tissue; host or cells: brain
T1 sequence (P31652 whole entry): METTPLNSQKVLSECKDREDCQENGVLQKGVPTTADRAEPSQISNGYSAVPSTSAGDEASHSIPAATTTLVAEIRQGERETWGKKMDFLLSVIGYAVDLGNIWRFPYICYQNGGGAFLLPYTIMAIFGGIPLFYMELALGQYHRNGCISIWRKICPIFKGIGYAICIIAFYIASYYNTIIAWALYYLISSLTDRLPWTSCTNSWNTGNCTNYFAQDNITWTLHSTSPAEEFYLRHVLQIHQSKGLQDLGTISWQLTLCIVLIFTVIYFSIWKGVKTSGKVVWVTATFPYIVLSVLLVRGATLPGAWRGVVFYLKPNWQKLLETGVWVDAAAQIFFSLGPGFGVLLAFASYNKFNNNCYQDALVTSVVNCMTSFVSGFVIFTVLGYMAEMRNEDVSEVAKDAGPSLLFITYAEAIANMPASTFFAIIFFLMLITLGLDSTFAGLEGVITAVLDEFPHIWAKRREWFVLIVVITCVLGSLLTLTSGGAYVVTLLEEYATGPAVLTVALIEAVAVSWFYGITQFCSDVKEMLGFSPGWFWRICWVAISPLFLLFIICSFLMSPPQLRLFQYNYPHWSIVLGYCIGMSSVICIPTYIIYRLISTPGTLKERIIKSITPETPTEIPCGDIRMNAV

Dopamine transporter = molecular target: T2, Dopamine transporter (Rattus norvegicus, UniProt P23977)
T2 construct: from tissue; host or cells: brain
T2 sequence (P23977 whole entry): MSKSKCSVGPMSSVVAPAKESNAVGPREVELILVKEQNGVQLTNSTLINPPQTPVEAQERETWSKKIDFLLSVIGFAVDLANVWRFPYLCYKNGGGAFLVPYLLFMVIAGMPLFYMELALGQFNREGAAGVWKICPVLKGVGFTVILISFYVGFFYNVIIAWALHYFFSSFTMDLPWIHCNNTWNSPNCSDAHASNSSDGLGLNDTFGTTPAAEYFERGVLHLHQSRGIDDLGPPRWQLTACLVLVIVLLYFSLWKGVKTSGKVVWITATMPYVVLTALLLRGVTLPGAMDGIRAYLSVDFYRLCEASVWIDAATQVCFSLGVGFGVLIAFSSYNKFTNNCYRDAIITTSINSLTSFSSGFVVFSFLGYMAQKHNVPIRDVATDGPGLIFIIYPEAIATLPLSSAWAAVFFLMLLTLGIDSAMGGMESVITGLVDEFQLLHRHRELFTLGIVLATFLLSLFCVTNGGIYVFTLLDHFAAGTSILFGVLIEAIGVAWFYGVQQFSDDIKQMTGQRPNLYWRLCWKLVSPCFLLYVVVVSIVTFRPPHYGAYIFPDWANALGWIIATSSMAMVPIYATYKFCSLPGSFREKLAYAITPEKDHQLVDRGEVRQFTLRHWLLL

[2] = molecular target: T3, Norepinephrine transporter (Rattus norvegicus, UniProt Q63380)
T3 construct: from tissue; host or cells: brain
T3 sequence (Q63380 1-617): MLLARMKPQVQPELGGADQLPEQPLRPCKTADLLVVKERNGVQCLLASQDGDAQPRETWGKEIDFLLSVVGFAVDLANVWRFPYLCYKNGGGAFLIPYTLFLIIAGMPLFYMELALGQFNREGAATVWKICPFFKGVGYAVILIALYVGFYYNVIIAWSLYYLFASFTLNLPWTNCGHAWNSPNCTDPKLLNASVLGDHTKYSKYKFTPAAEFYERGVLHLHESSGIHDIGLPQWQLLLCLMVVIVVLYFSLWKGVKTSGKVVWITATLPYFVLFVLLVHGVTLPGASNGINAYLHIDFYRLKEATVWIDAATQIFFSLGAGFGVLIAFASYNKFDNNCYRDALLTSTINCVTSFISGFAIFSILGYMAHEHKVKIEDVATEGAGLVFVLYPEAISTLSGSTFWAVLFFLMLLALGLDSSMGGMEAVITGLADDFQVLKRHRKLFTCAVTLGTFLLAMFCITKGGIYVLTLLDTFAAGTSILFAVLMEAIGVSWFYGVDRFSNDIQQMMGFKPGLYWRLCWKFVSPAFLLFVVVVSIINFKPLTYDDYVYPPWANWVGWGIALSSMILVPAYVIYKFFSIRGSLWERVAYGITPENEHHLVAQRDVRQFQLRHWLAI

[3] = system: nicotine-induced hypothermia; assay: Blockade of nicotine-induced hypothermia (body temperature); format: in vivo, mice; conditions: for AD50 Hypothermia: blocking nicotine-induced hypothermia, systemic administration
Description: Body Temperature. Rectal temperature was measured by a thermistor probe (inserted 24 mm) and digital thermometer (Yellow Springs Instrument Co., Yellow Springs, Ohio). Readings were taken just before and at 30 min after the s.c. injection of nicotine. For antagonism studies, mice were pretreated with either saline or various drugs 10 min before nicotine. The difference in rectal temperature before and after treatment was calculated for each mouse. The ambient temperature of the laboratory varied from 21 to 24° C. from day to day.
as §1

[4] = brain; read-out: Serotonin [3H]Paroxetine IC50; cited from earlier work
[5] = brain; read-out: Dopamine [3H]WIN 35,428 IC50; cited from earlier work
[6] = brain; read-out: Norepinephrine [3H]Nisoxetime IC50; cited from earlier work
[7] = read-out: Dopamine [3H]WIN 35,428 IC50; brain; cited from earlier work
[8] = read-out: Norepinephrine [3H]Nisoxetime IC50; brain; cited from earlier work

SMILES	Blockade of nicotine-induced antinociception (in words) ([1]; tail-flick, mice)	IC50 (Serotonin transporter; [4])	AD50 Tail-Flick ([1]; mice)	IC50 (Dopamine transporter; [5])	IC50 [2, 6]	also measured
CC(N)Cc1ccccc1 (stereo not shown) [Amphetamine, reference compound]	blocked nicotine-induced antinociception					AD50, nicotine-induced antinociception in tail-flick test ([1]; mice): 36.9 μmol/hg
CC(NC(C)(C)C)C(=O)c1cccc(Cl)c1 (stereo not shown) [Bupropion, reference compound]	dose-dependently blocked					AD50, nicotine-induced antinociception in tail-flick test ([1]; mice): 8 μmol/hg; Relative potency in blocking nicotine's antinociceptive effect (in words, comparator in the value) ([1]; tail-flick, mice): as potent as GBR 12909
Cn1c(=O)c2c(ncn2C)n(C)c1=O [Caffeine, reference compound]	blocked nicotine-induced antinociception					AD50, nicotine-induced antinociception in tail-flick test ([1]; mice): 32.4 μmol/hg
CNCCC(Oc1ccc(C(F)(F)F)cc1)c1ccccc1 (stereo not shown) [Fluoxetine, reference compound]	failed to significantly block					Tail-flick, % blockade @ dose ([1]; @ 86.7 μmol/hg, s.c.): 15% @ 86.7
Fc1ccc(C(OCCN2CCN(CCCc3ccccc3)CC2)c2ccc(F)cc2)cc1 [GBR 12909, reference compound]						AD50, nicotine-induced antinociception in tail-flick test ([1]; mice): 8.4 μmol/hg
CCN(CC)CC(=O)Nc1c(C)cccc1C [Lidocaine, reference compound]	failed to significantly block					Tail-flick, % blockade @ dose ([1]; @ 75 μmol/hg, s.c.): 7% @ 75
COC(=O)C(c1ccccc1)C1CCCCN1 (stereo not shown) [Methylphenidate, reference compound]	failed to block					Tail-flick, % blockade @ dose ([1]; @ 74 μmol/hg, s.c.): 5% @ 74
CNCCC(Oc1ccccc1OC)c1ccccc1 (stereo not shown) [Nisoxetine, reference compound]						AD50, nicotine-induced antinociception in tail-flick test ([1]; mice): 7.4 μmol/hg
CN1Cc2c(N)cccc2C(c2ccccc2)C1 (stereo not shown) [Nomifensine, reference compound]	dose-dependently blocked					AD50, nicotine-induced antinociception in tail-flick test ([1]; mice): 1.7 μmol/hg; Relative potency in blocking nicotine's antinociceptive effect (in words, comparator in the value) ([1]; tail-flick, mice): five times more potent than GBR 12909
CCN(CC)CCOC(=O)c1ccc(N)cc1 [Procaine, reference compound]	failed to significantly block					Tail-flick, % blockade @ dose ([1]; @ 75 μmol/hg, s.c.): 5% @ 75
COC(=O)C1C2CC[C@H](C[C@@H]1c1ccc(N)cc1)N2C (stereo partly shown) [RTI-29]		5110 nM	6.8 μmol/hg	9.8 nM	151 nM	Relative potency in blocking nicotine's antinociceptive effect (in words, comparator in the value) ([1]; tail-flick, mice): one-half as potent as cocaine; also recorded: approximately the same activity as WIN 35,065-2
COC(=O)[C@H]1[C@@H](c2ccc(Cl)cc2)C[C@H]2CC[C@H]1N2C [RTI-31]		44.5 nM	7.2 μmol/hg			AD50 Hypothermia ([3]; mice): 1.1 μmol/hg; AD50, blockade of nicotine-induced hypothermia ([3]; mice): 1.1 µmol/kg; Blockade of nicotine-induced hypothermia (in words) ([3]; mice): significantly blocked
COC(=O)[C@H]1[C@@H](c2ccc(C)cc2)C[C@@H]2CC[C@H]1N2C [RTI-32]			2.0 μmol/hg	1.7 nM	60 nM	AD50 Hypothermia ([3]; mice): 31.7 μmol/hg; Blockade of nicotine-induced hypothermia (in words) ([3]; mice): significantly blocked
COC(=O)[C@H]1[C@@H](c2ccc(Br)cc2)C[C@H]2CC[C@@H]1N2C [RTI-51]		10.6 nM	1.0 μmol/hg	1.69 nM		
COC(=O)[C@H]1C(c2ccc(I)cc2)C[C@@H]2CC[C@H]1N2C (stereo partly shown) [RTI-55]		4.2 nM	0.9 μmol/hg	1.26 nM	63 nM	AD50 Hypothermia ([3]; mice): 1.2 μmol/hg; Blockade of nicotine-induced hypothermia (in words) ([3]; mice): significantly blocked
CN1[C@H]2CC[C@@H]1[C@@H](C(=O)O)[C@@H](c1ccc(Cl)cc1)C2 [RTI-70]		59500 nM		2070 nM	> 200000 nM	Tail-flick, % blockade @ dose ([1]; @ 90 μmol/hg): 0% @ 90; Relative potency in blocking nicotine's antinociceptive effect (in words, comparator in the value) ([1]; tail-flick, mice): much less potent than cocaine; Hypothermia, % blockade @ dose ([3]; @ 90 μmol/hg): 40% @ 90
COC(=O)[C@H]1[C@@H](c2ccc(Cl)cc2)C[C@@H]2CC[C@H]1N2 [RTI-110]		4.1 nM	1.0 μmol/hg	0.62 nM	5.45 nM	Fold more potent than cocaine in blocking nicotine's antinociceptive effect ([1]; tail-flick, mice): 3 fold
COC(=O)[C@H]1[C@@H](c2ccc(Cl)c(Cl)c2)C[C@@H]2CC[C@H]1N2C [RTI-111]		3.1 nM	1.3 μmol/hg	0.79 nM	17.9 nM	Fold more potent than cocaine in blocking nicotine's antinociceptive effect ([1]; tail-flick, mice): ~2.5 fold
COC(=O)[C@H]1[C@@H](c2ccc(Cl)c(C)c2)C[C@@H]2CC[C@H]1N2C [RTI-112]		10.5 nM	3.5 μmol/hg	0.8 nM	36.2 nM	Relative potency in blocking nicotine's antinociceptive effect (in words, comparator in the value) ([1]; tail-flick, mice): approximately the same activity as cocaine; also recorded: approximately twice as potent as WIN 35,065-2; AD50 Hypothermia ([3]; mice): 1.5 μmol/hg; Blockade of nicotine-induced hypothermia (in words) ([3]; mice): significantly blocked
CN1[C@H]2CC[C@@H]1[C@@H](C(=O)Oc1ccccc1)[C@@H](c1ccc(Cl)cc1)C2 [RTI-113]		2340 nM	5.6 μmol/hg	1.98 nM	2930 nM	
CC(C)OC(=O)[C@@H]1C2CC[C@H](C[C@@H]1c1ccc(Cl)cc1)N2C [RTI-114]		1400 nM	5.3 μmol/hg	1.4 nM	778 nM	AD50 Hypothermia ([3]; mice): 9 μmol/hg
Cc1ccc([C@H]2C[C@@H]3CC[C@H]([C@H]2C(=O)Oc2ccccc2)N3C)cc1 [RTI-120]		24500 nM	4.0 μmol/hg	3.26 nM	5830 nM	Relative potency in blocking nicotine's antinociceptive effect (in words, comparator in the value) ([1]; tail-flick, mice): only one-half as potent as RTI-32
CC(C)OC(=O)C1C(c2ccc(I)cc2)CC2CCC1N2C (stereo not shown) [RTI-121]			0.3 μmol/hg			Fold more potent than cocaine in blocking nicotine's antinociceptive effect ([1]; tail-flick, mice): 10 fold; AD50 Hypothermia ([3]; mice): 49 μmol/hg; Blockade of nicotine-induced hypothermia (in words) ([3]; mice): significantly blocked; Fold less potent in blocking nicotine hypothermia than antinociception ([3]; mice): > 100 fold; IC50 (Dopamine transporter; [7]): 0.4 nM; IC50 [2, 8]: 285 nM
CN1C2CCC1C(C(=O)N1CCCC1)C(c1ccc(Cl)cc1)C2 (stereo not shown) [RTI-147]		12400 nM	5.7 μmol/hg			Relative potency in blocking nicotine's antinociceptive effect (in words, comparator in the value) ([1]; tail-flick, mice): about one-half as potent as cocaine; IC50 (Dopamine transporter; [7]): 1.38 nM; IC50 [2, 8]: 3950 nM
CN1C2CCC1C(C(=O)N1CCCC1)C(c1ccc(I)cc1)C2 (stereo not shown) [RTI-229]			3.6 μmol/hg			IC50 (Serotonin transporter; read-out: Serotonin [3H]Paroxetine IC50; brain; cited from earlier work): 1790 nM; Relative potency in blocking nicotine's antinociceptive effect (in words, comparator in the value) ([1]; tail-flick, mice): about the same potency as cocaine; IC50 (Dopamine transporter; [7]): 0.37 nM; IC50 [2, 8]: 990 nM
COC(=O)[C@H]1[C@@H](c2ccccc2)C[C@@H]2CC[C@H]1N2C [WIN 35,065-2, reference compound]			8.0 μmol/hg	23 nM	920 nM	Times less potent than cocaine in blocking nicotine's antinociceptive effect ([1]; tail-flick, mice): 2.5 times; AD50 Hypothermia ([3]; mice): 6.7 μmol/hg; Blockade of nicotine-induced hypothermia (in words) ([3]; mice): significantly blocked
COC(=O)[C@H]1[C@@H](OC(=O)c2ccccc2)C[C@@H]2CC[C@H]1[N+]2(C)C.[I-] [cocaine methiodide, reference compound]	failed to significantly block					Blockade of nicotine-induced antinociception (in words) ([1]; tail-flick, mice, listed as cocaine-methiodide): Lack of blockade
